Entries after “also recorded” stand apart in the source; their conditions may differ.
Tests used:
[1] = system: S. aureus SH1000 mature biofilms; experiment: S. aureus biofilm implant in vitro killing assay (mature biofilm on Kirschner wire, CFU analysis); format: cell-based, Staphylococcus aureus; conditions: for time to achieve 99.9% reduction of biofilm CFU compared to untreated implant pieces: treated in MHB media
Experimental: (§1) Bacterial strains and culture. S. aureus SH1000 was used for in vitro assays and the PJI animal model. SH1000 was inoculated in Tryptic Soy Broth (TSB, Becton Dickinson and Company) overnight at 37° C. with shaking at 250 rpm. Strains were diluted in Mueller Hinton Broth (MHB; Bectin Dickinson and Company) to a final concentration of 0.5×10^6 CFU/ml using the 0.5 MacFarland Standard (GFS Chemicals) and an Infinite M200 Spectrophotometer (Tecan). WLBU-2 (PLG0206) was supplied by Peptilogics (San Jose, California). All experiments were performed at least in triplicate at three separate times with freshly inoculated cultures.
S. aureus biofilm implant in vitro killing assays. Implant material was prepared from 0.6 mm diameter stainless steel Kirschner wire (Synthes) and cut into 6 mm length, autoclaved, and plated in wells along with SH1000 and all clinical strains at 1×10^6 CFU/ml. After plating, fresh MHB media was exchanged at 24 hours. At 48 hours, wire with mature biofilms were either placed into fresh MHB with either cefazolin or WLBU-2. Biofilms were treated with cefazolin at 0.13, 0.25, 0.5, and 1 mg/ml or WLBU-2 at 62, 125, 250, and 500 μg/ml. Cefazolin treated biofilm were removed 2, 6, and 24 hours after drug addition, WLBU-2 treated biofilm were removed 5 min, 20 min, 60 min, and 2 hours after drug addition. After treatment, Kirschner wires were placed in 1 ml of 1% Tween 20 and sonicated for 10 minutes. Sonicate was serially diluted and plated on TSA II with 5% sheep blood CS100 plates blood agar for colony forming unit (CFU) analysis. For pH analysis, prior to WLBU-2 addition, PBS was adjusted to more acidic pH using hydrochloric acid and more alkaline pH using ammonium hydroxide. Infected implant pieces were tested with WLBU-2 at both 0.5 and 1.0 μg/ml in PBS adjusted to pH of 6.5, 6.8, 7.0, 7.2, 7.4, and 8.0. Biofilm implant pieces were treated at very early time points of 2.5-20 minutes, then CFU analysis was performed.
as §1, with “Becton” for “Bectin”
S. aureus biofilm implant in vitro killing assays. Implant material was prepared from 0.6 mm diameter stainless steel Kirschner wire (Synthes) and cut into 6 mm length, autoclaved, and plated in wells along with SH1000 and all clinical strains at 1×10^6 CFU/ml. After plating, fresh MHB media was exchanged at 24 hours. At 48 hours, wire with mature biofilms were either placed into fresh MHB, normal saline, lactated ringers, or dPBS with fold dilutions of WLBU-2 at 62, 125, 250, 500, and 1000 μg/ml. dPBS solutions were prepared using any combination of the salt buffers listed in Table 3, dissolved in sterile, deionized water. After treatment, Kirschner wires were placed in 1 ml of 1% Tween 20 in dPBS and sonicated for 10 minutes. Sonicate was serially diluted and plated on TSA II with 5% sheep blood CS100 plates blood agar for colony forming unit (CFU) analysis. For pH analysis, prior to WLBU-2 addition, dPBS was adjusted to more acidic pH using hydrochloric acid and more alkaline pH using ammonium hydroxide. Infected implant pieces were tested with WLBU-2 at both 0.5 and 1.0 mg/ml in PBS adjusted to pH of 6.5, 6.8, 7.0, 7.2, 7.4, and 8.0. For ionic strength analysis, dPBS was adjusted to hypertonic conditions by addition of NaCl to dPBS (0.3 M) and hypotonic conditions by addition of deionized water to dPBS (0.08 M). […]

[2] = system: S. aureus (strain: SH1000); experiment: Rabbit PJI model, I&D with PLG0206 and/or systemic cefazolin, implant and tibia CFU up to Day 28; format: in vivo, Staphylococcus aureus
Experimental: (§2) A PJI New Zealand White Rabbit Animal model was used. A 3D printed tibia titanium implant was placed in the knee, and inoculated with S. aureus (strain: SH1000, inoculation density 2×10^6) after closure of the arthrotomy.
(§3) The rabbit is anesthetized with ketamine 40 mg/kg and xylazine 2 mg/kg during surgery. A bone tunnel in the tibial canal is created using a drill with a 1.2 mm or 1.6 mm tungsten carbide drill bit. The bone tunnel is then dried and treated to simulate acute human PJI following primary arthroplasty. A 3D printed titanium implant will then be placed in the bone tunnel and the wound closed. Prior to closure of the superficial skin layer, 0.1 mL of 2×10^6 planktonic bacteria (S. aureus; strain: SH1000; CFU/rabbit) in saline is injected into the joint space. A closure is performed, and a biofilm is allowed to become established over 2 days.
At 2 days post infection I&D will be performed on the infected joint and treatments will begin. Animals will receive treatment with an I&D alone, I&D with PLG0206, systemic treatment with cefazolin, or both PLG0206 and cefazolin When an animal dies or is sick and needs to be euthanized, the implant and a part of the tibia will be collected post mortem and bacterial burden will be determined by CFU. All surviving animals will be euthanized on Day 28 and the implant and tibia will be collected post mortem for CFU analysis.

[3] = system: S. aureus SH1000 biofilm on PJI implant; experiment: Periprosthetic Joint Infection Murine Washout Model (implant retrieved from mice, washed with peptide, CFU analysis); format: in vivo, Staphylococcus aureus; conditions: mouse
Text: Periprosthetic Joint Infection Murine Washout Model. Twelve-week-old […] female mice (Jackson) were used for all experiments. Mice were anesthetized by 2% isoflurane, hair was removed from leg and treated with betadine. With a scalpel, a medial parapatellar incision was made, and lateral displacement of the quadriceps-patellar complex allowed for visualization of the femoral intercondylar notch. With a 25-gauge needle, the femoral intramedullary canal was manually reamed. Mature S. aureus biofilm previously established on a 0.6 mm wide/6 mm long Kirschner wire (Synthes) was inserted into the reamed canal, and sutured closed. 48 hours later, mice were euthanized and the infected Kirschner wire implant were extracted, placed in WLBU-2 at 1.0 mg/ml in PBS previously pH adjusted to 6.5, 7.0, 7.2, or 7.4 for 10 minutes, and then placed 1% Tween 20 on ice. Implants were sonicated for 10 minutes. Samples were serially diluted and plated on TSA II with 5% sheep blood CS100 plates for CFU analysis.

[4] = system: S. aureus (strain: SH1000); experiment: Rabbit periprosthetic joint infection (PJI) model, ex vivo or in vivo treatment at I&D 2 days post infection, implant CFU; set-up: species or system Staphylococcus aureus
Experimental: as §2, §3
After 48 hours, animals were sacrificed and the implants were exposed to either topical cefazolin (10 mg/kg) or topical WLBU2 (1 mg/mL) in PBS (pH 7.4). Implants were sonicated 10 minutes, and colony forming unit (CFU) assay was performed on blood agar plates to quantify bacterial burden.
At 2 days post infection irrigation and debridement (I&D) was performed on the infected joint. Treatment with PLG0206 was administered at 1 mg/mL concentration (ex vivo or in vivo) and 0.5 mg/mL concentration (in vivo) at 15 (ex vivo and in vivo), and 7.5 minutes (in vivo) exposure times. For the ex vivo administration, the implant was removed and exposed to PLG0206 solution in a tube for 15 minutes. For the in vivo administration, irrigation and debridement on the joint was performed followed by PLG0206 treatment. The animals were euthanized after treatment, and the implants removed post mortem.

Compound: Cc1nnc(SCC2=C(C(=O)O)N3C(=O)[C@@H](NC(=O)Cn4cnnn4)[C@H]3SC2)s1 [Cefazolin, reference compound]
- decrease in biofilm CFU over 6 hours ([1]; MHB, 6 hours): only a modest decrease
- time to achieve 99.9% reduction of biofilm CFU compared to untreated implant pieces [1]: over 24 hours
- reduction in bacterial burden ([2]; cefazolin treatment alone (Group 2)): 1.5 log

Compound: WLBU-2: RRWVRRVRRVWRRVVRVVRRWVRR (SEQ ID NO: 10); synthetically engineered cationic antimicrobial peptide (RRWVRRVRRVWRRVVRVVRRWVRR; Antimicrobial peptide WLBU-2)
- contact time needed to achieve a three-log reduction in biofilm CFU ([1]; 1.0 mg/ml in 6.5 pH PBS): 15 minutes
- contact time needed to achieve a three-log reduction in biofilm CFU ([1]; 1.0 mg/ml in 8.0 pH PBS): 2.5 minutes
- biofilm CFU after treatment (sterile samples) ([1]; PBS pH 7.4): 0 CFU
- biofilm CFU after treatment (sterile samples) ([1]; PBS pH 8.0): 0 CFU
- reduction in biofilm CFU ([1]; dPBS at pH 7.5, 10 minutes, 62, 125, 250, 500 and 1000 μg/mL): three-log reduction or greater; also recorded: three-log reduction
- reduction in bacterial biofilm ([1]; dPBS, pH 7.0, 62-1000 μg/ml, 10 minutes): over 99.9%
- reduction in biofilm CFU ([1]; hypertonic dPBS at pH 7.5, 10 minutes): a three-log reduction was not achieved
- biofilm CFU after treatment ([1]; hypotonic dPBS at pH 7.5, 10 minutes, 62, 125, 250, 500 and 1000 μg/mL): 0 CFU
- time needed to obtain 0 CFU sterile samples, compared to hypertonic dPBS ([1]; hypotonic dPBS of 0.08 M): less time needed
- time needed to obtain a three-log reduction, compared to hypertonic dPBS ([1]; hypotonic dPBS of 0.08 M): less time needed
- time to achieve a 99.9% reduction in biofilm CFU ([1]; in buffered PBS, doses of 62-1000 μg/ml): ≤ 20 min
- reduction in bacterial biofilm ([1]; lactated ringers, pH 6.5, 62-1000 μg/ml, 10 minutes): over 99.9%
- reduction in bacterial biofilm CFUs ([1]; normal saline, measured pH of 5.8, 62-1000 μg/ml, 10 minutes): ~99%
- contact time needed to obtain above a 99.9% clearance of biofilms ([1]; pH of the washout solution above 7.0): under 5 minutes
- time to achieve 99.9% reduction of biofilm CFU compared to untreated implant pieces [1]: under 2 hours
- biofilm CFU on PJI implant compared to No Drug group ([3]; 1.0 mg/ml in PBS pH 7.0, 10 minutes): significant reduction
- biofilm CFU on PJI implant compared to No Drug group ([3]; 1.0 mg/ml in PBS pH 7.2, 10 minutes): significant reduction
- biofilm CFU on PJI implant compared to No Drug group ([3]; 1.0 mg/ml in PBS pH 7.4, 10 minutes): significant reduction
- biofilm CFU on PJI implant, washout with 7.4 pH compared to washout with 6.5 pH ([3]; 1.0 mg/ml in PBS, 10 minutes): significantly less; also recorded: significant reduction
- reduction in bacterial burden in comparison to control ([4]; ex vivo treatment, 1 mg/mL, 15 minutes): greater than 2 log
- reduction in bacterial burden, 1 mg/ml for 15 minutes in comparison to 0.5 mg/ml ([4]; in vivo study): significantly greater reduction
- reduction in bacterial burden in comparison to control ([4]; in vivo treatment after I&D): greater than 2 log
- reduction in bacterial burden ([2]; 1 mg/ml PLG0206 in combination with cefazolin (Group 4)): 2.5 log
- bacterial burden in comparison to control ([2]; 1 mg/ml treatment alone (Group 3)): not significant
